Data on two compounds can be found in US20070077642A1, “Steroid receptor modulation of gene expression” (priority 2002, published 2007).

One experiment relates to A. nidulans. The experiment is described as follows: Growth test on plates at different ligand concentrations. Format: cell-based, Aspergillus nidulans. The method, then:
Induction of estrogen receptor expression via the addition of […], 100 nM, and 1 μM of DES inducer to media plates harboring the Xgal substrate for LacZ in the transformed strain: A. nidulans argB2, riboA1, pyrG 89, pyroA4. FIG. 6. […] Activation of the reporter construct at 1 nM DES was shown in the transformed fungi.

Experiment [1] has as its system alcA promoter of A. nidulans. Particulars: pRM alcA, induction with ethanol. The method, then:
To test the different inducer concentrations the strains were harvested by filtration and aliquots were transferred to fresh media containing the different inducer concentrations and additionally grown for 8 hours. At the end mycelium was harvested by filtration and frozen in liquid nitrogen. For time curve experiments the strains were harvested and additionally grown for 24 hours and after 2, 4, 6, 8 and 24 hours samples were taken and frozen in liquid nitrogen. […] An equal amount of fungal cell mass has been transferred to fresh medium and aliquots have been subjected to induction by the agonists. After sampling at desired time points the wet cell pellet has been processed as described.
NaPO4 buffer and glasbeads (0.75-1.0 mm) were added to the frozen mycelia and cells were destroyed by the use of the Hybaid RiboLyser. Cell debris was separated by centrifugation and the supernatant was used for enzyme assays Protein concentration was determined using the BCA assay of Pierce and the specific β-galactosidase activity was determined by the use of the protocol of Invitrogen.
β-gal activity in each pERE constructs were assayed after induction with 1 nM DES. The alcA expression was also assayed for comparison.

Molecules are shown by their SMILES. Where two headings read alike, the source gives them in different places.

As to `CC/C(=C(/CC)c1ccc(O)cc1)c1ccc(O)cc1` [DES, diethylstilbestrol], the “growth of strains transformed with reporter constructs” value in the experiment on A. nidulans (strains transformed with reporter constructs, 100 nM DES) is recorded as “strong growth inhibition”. Moreover, in the experiment on A. nidulans (strains transformed with the hER, 1 nM DES), the “growth of strains transformed with the hER” value is “Growth inhibition”. Also, the “effect on growth of a wild type strain” value in the experiment on A. nidulans (wild type strain, DES concentrations up to 20 μM) was “do not affect the growth”.
Regarding `CCO` [ethanol], the Inducibility in experiment [1] (24 h level over time 0 level) is recorded as 16.23. Further, the β-gal activity in experiment [1] (time 2 hours) amounted to 506.66 units per mg protein; in experiment [1] (time 4 hours), 714.43 units per mg protein; in experiment [1] (time 6 hours), 1327.44 units per mg protein; in experiment [1] (time 8 hours), 1431.02 units per mg protein; in experiment [1] (time 24 hours), 6082.59 units per mg protein.
